Values after ≈ are worked out from the molar mass of the structure shown. Values joined by “and” are separate entries in the source; they are usually repeats but may differ in a detail not shown here. Equal values may be shown once. Read-outs that look alike come from different tables or passages of the source.
Experiments:
[1] = test system: locomotor activity in mice; experiment: Locomotor activity in mice, open field (Digiscan activity monitor); type: in vivo, mouse
Protocol: Adult male mice of the NIH (Swiss) strain weighing 25-30 g were housed in groups of 10 animals per cage with a light-dark cycle of 12:12 h. The animals were given free access to standard pellet food and water and were acclimatized to laboratory conditions for 24 h prior to testing. Each animal was used only once in the activity monitor.
Locomotor activity of individual animals was studied in an open field using a Digiscan activity monitor (Omnitech Electronics Inc., Columbus, Ohio) equipped with an IBM-compatible computer. The computer-tabulated measurements represent multivariate locomotor analysis with specific measures, such as simultaneous measurements of ambulatory, rearing, stereotypical, and rotational behaviors. Data were collected in the morning, for three consecutive intervals of 10 minutes each, and analyzed separately and as a group. Statistical analysis was performed using the Student t test. […] Drugs were administered i.p. in a volume corresponding to 5 ml/kg body weight. Where applicable, the antagonist was injected 10 minutes before the agonist. ED50 values were determined using regression analysis on the InPlot software (GraphPAD, San Diego, Calif.).

[2] = biological target: T1, rat A1 cortical receptors (Rattus norvegicus, UniProt P25099); experiment: Radioligand binding, [3H]N6-phenylisopropyladenosine ([3H]PIA), rat cortical A1 receptors; settings: for Ki: vs [3H]PIA (1 nM), read-out: Ki (A1); for inhibition at 10 µM: at 10^-5
T1 construct: Rat cerebral cortical membranes and striatal membranes were prepared; from tissue; host or cells: rat cerebral cortex membranes
T1 sequence (P25099 1-326): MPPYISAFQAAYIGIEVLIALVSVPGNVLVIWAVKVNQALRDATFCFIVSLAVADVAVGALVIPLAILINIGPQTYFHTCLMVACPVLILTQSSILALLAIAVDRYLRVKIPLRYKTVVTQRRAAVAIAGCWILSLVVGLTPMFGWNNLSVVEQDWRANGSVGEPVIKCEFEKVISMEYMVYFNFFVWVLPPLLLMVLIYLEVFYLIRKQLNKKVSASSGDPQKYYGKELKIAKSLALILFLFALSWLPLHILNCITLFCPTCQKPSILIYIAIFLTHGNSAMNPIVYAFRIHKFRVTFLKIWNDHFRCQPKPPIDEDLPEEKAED
Protocol: (§1) The 1,3,7-trialkyl-8-substituted xanthine compounds of the present invention were tested in a radioligand binding assay for affinity at adenosine receptors in rat brain membranes.
The final concentration of DMSO in the assay medium was generally 2%.
Membranes (~100 μg protein per tube) were incubated for 1.5 h at 37° C. in a total volume of 0.5 ml of 50 mM Tris hydrochloride, at pH 7.4. Test drugs were dissolved in DMSO and added in 10 μl aliquots, resulting in a final DMSO concentration of 2%. Bound and free radioligand were separated by addition of 3 ml of a buffer containing 50 mM Tris hydrochloride, pH 7.4, at 5° C., followed by vacuum filtration using a Brandel Cell Harvester (Brandel, Gaithersburg, Md.) and a Whatman GF/B glass fiber filter with additional washes totaling 9 ml of buffer. Non-specific binding was determined with 10 μM 2-chloroadenosine.
(§2) At least six different concentrations spanning three orders of magnitude, adjusted appropriately for the IC50 of each compound, were used.

[3] = biological target: A2 receptors, rat striatum; settings: vs [3H]NECA in rat striatum; read-out: Ki (A2a), Shimada et al.; cited from earlier work
[4] = biological target: rat striatal A2a receptors (Rattus norvegicus, UniProt P30543); experiment: Radioligand binding, [3H]CGS 21680, rat striatal A2a receptors; set-up: Rat cerebral cortical membranes and striatal membranes were prepared; from tissue; host or cells: rat striatal membranes; settings: for potency or selectivity in binding, in words: rat A1 and A2 binding
Protocol: as §1
The stock solutions were diluted with DMSO to a concentration of ≥0.1 mM prior to adding to the aqueous medium. The final concentration of DMSO in the assay medium was generally 2%.
Test drugs were dissolved in DMSO and added in 10 μl aliquots, resulting in a final DMSO concentration of 2%. Non-specific binding was defined using 20 μM 2-chloroadenosine. Filtration was carried out using a Brandel Cell Harvester, as above, using Tris HCl/MgCl2 as the washing buffer.
as §2

[5] = Table I, vs [3H]CGS21680 (5 nM), rat striatal A2 receptors, read-out: Ki (A2a)
[6] = 1.5 h, vs [3H]PIA, read-out: Percent displacement of specific binding (A1)
[7] = vs [3H]CGS 21680, read-out: Ki value / affinity at A2 receptors
[8] = Table IV, vs [3H]CGS21680 (5 nM), read-out: Ki (A2)

rat striatal A2a receptors, sequence (P30543 whole entry): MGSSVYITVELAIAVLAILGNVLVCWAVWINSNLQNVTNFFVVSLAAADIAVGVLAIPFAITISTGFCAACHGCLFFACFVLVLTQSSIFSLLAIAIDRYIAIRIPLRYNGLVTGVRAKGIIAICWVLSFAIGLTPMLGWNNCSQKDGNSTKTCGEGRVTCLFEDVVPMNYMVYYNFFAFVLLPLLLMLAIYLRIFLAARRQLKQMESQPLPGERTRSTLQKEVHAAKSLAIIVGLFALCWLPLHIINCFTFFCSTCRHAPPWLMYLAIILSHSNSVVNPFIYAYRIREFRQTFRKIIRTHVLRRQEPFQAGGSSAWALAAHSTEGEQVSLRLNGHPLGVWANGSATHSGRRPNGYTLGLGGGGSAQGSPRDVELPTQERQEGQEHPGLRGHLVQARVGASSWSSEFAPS

SMILES	Ki ([2]; Table I, rat A1 receptors) [nM]	A1/A2a ratio ([4]; Table I, ratio of Ki values)	Ki [4, 5] [nM]	other results
Cn1c(=O)c2c(ncn2C)n(C)c1=O [caffeine, 1,3,7-trimethylxanthine, reference compound]				Behavioral stimulation ([1]; mouse, in vivo, ip): +++
CCCn1c(=O)c2c(nc(/C=C/c3ccc(OC)c(OC)c3)n2C)n(CCC)c1=O [Compound 52b]	577 ± 42			Ki [3]: 7.8 nM
OC[C@H]1O[C@@H](n2cnc3c(NC4CCCCC4)ncnc32)[C@H](O)[C@@H]1O [CHA, N^6 -cyclohexyladenosine, reference compound]				total distance traveled ([1]; CHA control 100 μg/kg i.p., n=9): 2090±438 cm/30 min; ED50 ([1]; Mus musculus, ip, CHA, i.p., read-out: ED50 for locomotor depression): 0.1 mg/kg
COc1cc(/C=C/c2nc3c(c(=O)n(C)c(=O)n3C)n2C)cc(OC)c1OCCCCNC(=O)OC(C)(C)C [Compound 39, 1,3,7-Trimethyl-8-[3,5-dimethoxy-4-[4-(tert-butyloxycarbonylamino)butyloxy]styryl]xanthine]	11000	42	265 ± 105	
Cn1c(=O)c2c(nc(/C=C/c3cccc(Br)c3)n2C)n(C)c1=O [Compound 28b]	3520	120	29.2 ± 3.1	
Cn1c(=O)c2[nH]c(/C=C/c3cccc(O)c3)nc2n(C)c1=O [Compound 18]	702 ± 40	2.4	303 ± 55	potency or selectivity in binding, in words [4]: equipotent with the methoxy compound, 19b, at A2 -receptors and more potent at A1 -receptors
COc1cc(/C=C/c2nc3c(c(=O)n(C)c(=O)n3C)n2C)cc(OC)c1OC/C=C/CNC(C)=O [Compound 41]		> 50	216 ± 40	inhibition at 10 µM [2, 6]: 17 ± 7%
CCCn1c(=O)c2c(nc(/C=C/c3cccc(N)c3)n2C)n(CCC)c1=O [Compound 49]	113 ± 21	6.0	18.9 ± 5.3	Ki [4, 7]: ≤ 50 nM
COc1cccc(/C=C/c2nc3c([nH]2)c(=O)n(C)c(=O)n3C)c1 [Compound 19a]	1830	4.8	378 ± 155	
Cn1c(=O)c2c(nc(/C=C/c3cccc(N(C(=O)OC(C)(C)C)C(=O)OC(C)(C)C)c3)n2C)n(C)c1=O [Compound 26, 1,3,7-Trimethyl-8-[3-[di-(tert-butyloxycarbonyl)amino]styryl]xanthine]	10800	15	740 ± 77	reduction of potency at A2-receptors ([4]; very bulky 3-position substituents): roughly 20 fold
Cn1c(=O)c2c(nc(CCc3cccc(N)c3)n2C)n(C)c1=O [Compound 57, 1,3,7-Trimethyl-8-[2-(3-aminophenyl)ethyl]xanthine]				inhibition at 10 µM [2, 6]: 15%; fold less potent at A2 receptors than 22b [4]: ~ 300 fold; Ki [4, 8]: 18000 nM
CCCn1c(=O)c2[nH]c(/C=C/c3ccc(OC)c(OC)c3OC)nc2n(CCC)c1=O [Compound 55a]	97 ± 19	1.5	64 ± 15.6	
Cn1c(=O)c2[nH]c(/C(F)=C/c3ccccc3)nc2n(C)c1=O [Compound 16]	2190	1.4	2110	
Cn1c(=O)c2[nH]c(/C=C/c3cccc(F)c3)nc2n(C)c1=O [Compound 27a]	2720	5.3	516 ± 99	
CCCn1c(=O)c2[nH]c(/C=C/c3cc(F)cc(F)c3)nc2n(CCC)c1=O [Compound 54a]	146 ± 25	0.42	346 ± 97	
COc1ccc(/C=C/c2nc3c(c(=O)n(C)c(=O)n3C)n2C)cc1OC [Compound 32b, 1,3,7-Trimethyl-8-(3,4-dimethoxystyryl)xanthine]	13800		197 ± 33	A1/A2a ratio ([4]; rat, brain membranes): 70

SMILES	Ki ([2]; Table I, rat A1 receptors) [nM]	A1/A2a ratio ([4]; Table I, ratio of Ki values)	Ki [4, 5] [nM]	other results
Cn1c(=O)c2c(nc(/C=C/c3cccc(NC(=O)CCC(=O)O)c3)n2C)n(C)c1=O [Compound 24, 1,3,7-Trimethyl-8-(3-succinylaminostyryl)xanthine]	35100	250	143 ± 45	solubility (Aqueous solubility; 0.1 m k2hpo4): 19 mM (≈ 7820 µg/mL); solubility (Aqueous solubility; 0.1 m potassium phosphate, pH 7.4): 19 mM (≈ 7820 µg/mL); Ki ([4]; Ki value / affinity at A2 receptors): 134 nM
CC(=O)Nc1cccc(/C=C/c2nc3c(c(=O)n(C)c(=O)n3C)n2C)c1 [Compound 23, 1,3,7-Trimethyl-8-(3-acetylaminostyryl)xanthine]	9470	240	39 ± 21	Ki [4, 7]: 39 nM and ≤ 50 nM
COc1ccc(/C=C/c2nc3c(c(=O)n(C)c(=O)n3C)n2C)c(OC)c1OC [Compound 43b]	6920	34	206 ± 81	
CCCn1c(=O)c2c(nc(/C=C/c3cccc(F)c3)n2C)n(CCC)c1=O [Compound 50b]	301 ± 64	9.1	33 ± 15	Ki [4, 7]: ≤ 50 nM
Cn1c(=O)c2[nH]c(/C=C/c3cccc(N)c3)nc2n(C)c1=O [Compound 22a, 1,3-Dimethyl-8-(3-aminostyryl)xanthine]	288 ± 60	1.4	202 ± 79	
Cn1c(=O)c2c(nc(/C=C/c3cccc(I)c3)n2C)n(C)c1=O [Compound 28c]	2370	61	38.6 ± 12.5	
COc1ccc(/C=C/c2nc3c([nH]2)c(=O)n(C)c(=O)n3C)c(OC)c1OC [Compound 43a]		> 5	1610	inhibition at 10 µM [2, 6]: 26 ± 10%
Cn1c(=O)c2c(nc(/C=C/c3cccc(N)c3)n2C)n(C)c1=O [Compound 22b, 1,3,7-Trimethyl-8-(3-aminostyryl)xanthine]	1690	30	57 ± 3	A2-selectivity ([4]; rat brain binding, this study): 30 fold
Cn1c(=O)c2[nH]c(/C=C/c3cccc(C(F)(F)F)c3)nc2n(C)c1=O [Compound 20a, 1,3-Dimethyl-8-(3-trifluoromethylstyryl)xanthine]	881 ± 251	2.6	343 ± 58	
CCn1c(=O)c2[nH]c(/C=C/c3cc(OC)c(OC)c(OC)c3)nc2n(CC)c1=O [Compound 45a]	852 ± 277	3.2	269 ± 7	
CCn1c(/C=C/c2cc(OC)c(OC)c(OC)c2)nc2c1c(=O)n(C)c(=O)n2C [Compound 44c, 7-Ethyl-1,3-trimethyl-8-[3,4,5-trimethoxystyryl]xanthine]	6290	7.1	882 ± 239	
COc1ccc(/C=C/c2nc3c([nH]2)c(=O)n(C)c(=O)n3C)cc1 [Compound 29a, 1,3-Dimethyl-8-(4-methoxystyryl)xanthine]	858 ± 320	1.8	472 ± 132	
CN(C)c1ccc(/C=C/c2nc3c(c(=O)n(C)c(=O)n3C)n2C)cc1 [Compound 30b]		> 1	9270	inhibition at 30 µM ([2]; 1.5 h, at 3 × 10^-5, vs [3H]PIA, read-out: Percent displacement of specific binding (A1)): 5.6%; potency or selectivity in binding, in words [4]: displayed A2 -selectivity
COc1ccccc1/C=C/c1nc2c([nH]1)c(=O)n(C)c(=O)n2C [Compound 17a, 1,3-Dimethyl-8-(2-methoxystyryl)xanthine]	1730	2.7	645 ± 144	
COc1cccc2cc(-c3nc4c([nH]3)c(=O)n(C)c(=O)n4C)oc12 [Compound 58a]				Ki ([2]; Table IV): 1700 nM; A1/A2 ratio ([4]; Table IV): 0.5; Ki [4, 8]: 3900 nM
CCCn1c(=O)c2[nH]c(C3CCCC3)nc2n(CCC)c1=O [CPX, 8-cyclopentyl-1,3-dipropyl-xanthine, reference compound]				locomotor stimulation, in words ([1]; mice): minimal depressant effect on locomotor activity
